We go through one molecule from patent publication EP0199238A1, “1,4-Dihydropyridine derivatives, process for their preparation and their use in medicaments” (BAYER AG, priority 1985, dated 1986).

In this test the test system is SH-Ratte. The test can be described thus: Blood pressure measurement in conscious rats (tail cuff, oral administration). In kind it is in vivo. The conditions noted are these: Rattus norvegicus, oral by gavage, lowest dose that still gives at least 15 mm Hg fall in systolic blood pressure, read-out: Grenzdosis der antihypertensiven Wirkung. The method, then: Blutdruckmessung bei wachen Ratten
Meßmethode: In Anlehnung an das von Breuninger beschriebene Verfahren wird der Blutdruck am Schwanz der nicht narkotisierten Ratte unblutig mittels aufblasbarer Gummimanschette und Infraton-Pulsabnehmer D nach Boucke-Brecht gemessen. Die Tiere befinden sich während des ganzen Versuches, einschlieBlich einer 2-stündigen Vorperiode, einzeln in einem Wassermantel umgeben, auf ca. 30°C temperierten Kunststoffröhren. Die aufblasbare Gummimanschette sitzt an der Schwanzwurzel, der Pulsabnehmer 2-5 cm distal davon. Zur Erzielung gleichmäßiger Meßresultate ist für die wiederholten Messungen die Meßstelle am Schwanz mit Tusche markiert.
Der gesamte Meßvorgang wird auf einem 2-Kanal-Direktschreiber oder einem Speicher-Oszillografen (Tektronix) registriert, im 1. Kanal die Pulsationen der Schwanzarterie, im 2. Kanal die Impulse eines Druckmarkengebers, der den jeweils in der Manschette herrschenden Druck anzeigt. Gemessen wird bei abfallendem Manschettendruck. Als Meßwert wird der in der Manschette herrschende Druck bei Wiederauftreten der Pulsationen benutzt. Er entspricht dem systolischen Blutdruck im Rattenschwanz. […]
Bei der quantitativen Bestimmung von Dosis-Wirkungskurven wird für jedes Tier die Wirkung als mittlere prozentuale Blutdrucksenkung gegenüber dem Ausgangsblutdruck, gemittelt über den Versuchszeitraum von 6 Stunden, angegeben. […]

For `COC(=O)C1=C(C)NC(C)=C(C(=O)OCC(C)(C)O)C1c1ccccc1[N+](=O)[O-]` (stereo not shown) [Beispiel 3, 1,4-Dihydro-2,6-dimethyl-4-(2-nitrophenyl)-pyridin-3,5-dicarbonsäure-(2-hydroxy-2-methyl-propyl)-methyl-ester], the minimal effective dose was 1 mg/kg.
